From US20250129184A1, “TARGETED ANTICOAGULANT” (Northwestern University, priority 2016, published 2025)
Where no end group is shown, it is not given here.

Columns and labels:
[1] = molecular target: albumin (Homo sapiens, UniProt P02768); assay: peptide binding to protein-coated polystyrene surfaces (albumin); details: biotinylated peptide; common blood plasma protein
Procedure: (§1) During the development of embodiments of the technology provided herein, experiments were conducted to assess the binding specificity of the CREKA peptides towards fibrin and non-target components. […] Proteins were applied to uncoated polystyrene surfaces at 10 μg/cm^2 and washed with PBS three times to remove unbound protein. A range of concentrations of biotinylated CREKA and biotinylated CERAK were incubated with the treated surfaces overnight, then washed three times the next day to remove the unbound peptides. The peptides remaining on the protein-coated surfaces were quantified using fluorophore-conjugated streptavidin. […] These properties of the heparin-CREKA compounds indicate that heparin-CREKA is appropriate for administration by intravenous injection.

[2] = tested on: fibrin; assay: peptide binding to protein-coated polystyrene surfaces (fibrin); details: biotinylated peptide vs scrambled CERAK; protein 10 μg/cm^2; overnight; fluorophore-conjugated streptavidin
Procedure: as §1

[3] = molecular target: T1, fibrinogen (Homo sapiens, UniProt P02671+P02675+P02679); assay: peptide binding to protein-coated polystyrene surfaces (fibrinogen); details: biotinylated peptide; common blood plasma protein
T1 sequence (P02671 20-629 limits assumed): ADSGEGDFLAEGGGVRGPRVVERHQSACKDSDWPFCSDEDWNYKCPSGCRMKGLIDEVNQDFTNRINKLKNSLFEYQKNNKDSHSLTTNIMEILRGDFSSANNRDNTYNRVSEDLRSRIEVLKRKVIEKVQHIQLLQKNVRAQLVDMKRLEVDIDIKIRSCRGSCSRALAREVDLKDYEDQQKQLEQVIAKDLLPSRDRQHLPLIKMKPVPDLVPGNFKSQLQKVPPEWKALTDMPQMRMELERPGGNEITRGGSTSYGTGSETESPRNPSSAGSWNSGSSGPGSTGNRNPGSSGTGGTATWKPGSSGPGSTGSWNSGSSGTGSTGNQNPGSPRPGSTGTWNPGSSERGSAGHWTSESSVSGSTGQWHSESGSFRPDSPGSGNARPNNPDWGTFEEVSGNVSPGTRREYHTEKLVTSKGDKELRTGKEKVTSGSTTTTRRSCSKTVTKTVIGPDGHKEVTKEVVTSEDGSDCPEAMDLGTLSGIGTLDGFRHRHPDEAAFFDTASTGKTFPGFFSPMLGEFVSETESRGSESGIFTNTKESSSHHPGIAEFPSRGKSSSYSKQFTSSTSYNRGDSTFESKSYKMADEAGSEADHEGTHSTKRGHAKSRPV
T1 sequence (P02675 31-491): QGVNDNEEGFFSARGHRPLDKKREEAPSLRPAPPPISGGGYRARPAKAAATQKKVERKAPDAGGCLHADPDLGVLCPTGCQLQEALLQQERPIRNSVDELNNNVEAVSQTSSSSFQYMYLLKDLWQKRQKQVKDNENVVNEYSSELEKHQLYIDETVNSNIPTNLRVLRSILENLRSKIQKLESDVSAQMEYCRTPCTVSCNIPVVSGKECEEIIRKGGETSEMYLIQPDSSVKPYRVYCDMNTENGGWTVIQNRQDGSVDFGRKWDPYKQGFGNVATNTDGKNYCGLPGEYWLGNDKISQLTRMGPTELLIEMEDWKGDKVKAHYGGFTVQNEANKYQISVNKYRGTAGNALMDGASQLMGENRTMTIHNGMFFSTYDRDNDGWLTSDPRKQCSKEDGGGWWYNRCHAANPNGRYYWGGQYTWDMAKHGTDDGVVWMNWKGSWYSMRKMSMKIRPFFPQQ
T1 sequence (P02679 27-433 limits assumed): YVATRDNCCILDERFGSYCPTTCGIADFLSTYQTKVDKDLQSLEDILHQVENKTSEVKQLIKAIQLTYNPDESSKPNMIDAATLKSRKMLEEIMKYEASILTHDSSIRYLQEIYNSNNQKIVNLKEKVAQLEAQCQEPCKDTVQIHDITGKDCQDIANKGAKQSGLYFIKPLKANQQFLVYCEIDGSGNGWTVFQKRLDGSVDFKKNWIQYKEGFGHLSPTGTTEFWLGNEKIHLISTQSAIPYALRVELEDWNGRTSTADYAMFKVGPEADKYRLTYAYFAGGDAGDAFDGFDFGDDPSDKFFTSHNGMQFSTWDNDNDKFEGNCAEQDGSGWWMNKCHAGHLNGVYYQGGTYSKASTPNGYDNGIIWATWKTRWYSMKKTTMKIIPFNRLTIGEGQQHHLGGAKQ
Procedure: as §1

[4] = tested on: ePTFE graft in abdominal aorta; assay: rat abdominal aorta interposition model with ePTFE graft; assay type: in vivo, Sprague Dawley rats; details: two intravenous doses, 24 hours; middle_3 and distal segments
Procedure: During the development of embodiments of the technology provided herein, experiments were conducted to evaluate the in vivo performance of the heparin-CREKA relative to conventional clinically used heparin. In particular, heparin-CREKA was studied in a rat abdominal aorta interposition model. Briefly, male Sprague Dawley rats (200-500 g) were anesthetized by a ketamine/xylazine cocktail. The abdomen of the anesthetized rat was entered through a midline incision. The abdominal aorta was exposed (FIG. 7, Panel A), clamped in both proximal and distal regions using micro-vessel clips, and then excised between the clamps (FIG. 7, Panel B). A segment (e.g., approximately 1 cm in length; 1.524±0.05 mm in diameter) of expanded polytetrafluoroethylene (ePTFE) was used as a graft. The graft was connected to the abdominal aorta using an end-to-end anastomosis technique with interrupted stitches at each end (FIG. 7, Panel C). Following reperfusion of blood flow through the graft, one dose of anti-coagulant (heparin or heparin-CREKA) was given systemically via intravenous injection. The incision was then closed in layers. 24 hours after the initial implantation surgeries and immediately prior to sacrifice of the test […], a second dose of […] (heparin or heparin-CREKA) was administered systemically via intravenous injection. […]

[5] = tested on: Pig whole blood; assay: whole blood clotting assay on fibrin coated plates; assay type: cell-based; details: fibrin coated 96-well plates pre-treated 30 minutes, washed three times with PBS; re-calcified blood; absorbance 405 nm
Procedure: During the development of embodiments of the technology provided herein, experiments were conducted to test the anti-coagulant activity of embodiments of the heparin-CREKA compounds described herein. In particular, the heparin-CREKA compounds were evaluated by a whole blood clotting assay and a platelet adhesion assay (FIGS. 4 and 5). Pig whole blood was collected into acid citrate dextrose (ACD) anticoagulant. Fibrin coated 96-well plates were pre-treated with phosphate-buffered saline (PBS), heparin, or heparin-CREKA for 30 minutes at room temperature, then followed with three washes with PBS prior to the test. The wash removes unbound heparin or heparin-CREKA from the surfaces. Control experiments included tests of tissue culture treated and untreated polystyrene 96 well plates. […] The coagulation process was monitored at each selected time point by adding 150 μl of deionized water into each well to lyse the unclotted red blood cells. The lysate was then transferred into a new plate and the absorbance was measured at a wavelength of 405 nm. Higher absorbance represents more unclotted red blood cells and better anti-coagulation effect. The anti-coagulant effect of heparin-CREKA was detected up to 60 minutes while the effect of the conventional heparin was undetectable 20 minutes after contacting the blood (FIG. 4).

[6] = tested on: graft site; assay: in vivo dosing studies, anti-coagulant effect at the graft site by imaging
Procedure: During the development of embodiments of the technology provided herein, experiments were conducted to study the in vivo binding and pharmacology response of the embodiments of heparin-CREKA. In particular, data were collected from three animal studies in which the dosing period was varied. Study 1—animals were scarified 24 hours after the initial surgery and 2 doses of heparin-CREKA or control heparin-CERAK were administrated by intravenous injection during the 24 hour period. The first dose was administered immediately after the surgery (e.g., after re-establishing blood flow at the graft area). The second dose was administered 6 hours prior to euthanizing the animal. Imaging data were collected and analyzed to evaluate the anti-coagulant effect of heparin-CREKA at the graft site. […] Study 2—animals were kept alive for 7 days after surgery and one dose of heparin-CREKA or control heparin-CERAK was administrated by intravenous injection immediately after the surgery (e.g., after re-establishing blood flow at the graft area). In contrast to Study 1, no additional dose was given after the first dose. Imaging data were collected and analyzed to evaluate the anti-coagulant effect of heparin-CREKA at the graft site. […] Study 3—animals were kept alive for 7 days after surgery and two doses of heparin-CREKA or control heparin-CERAK were administrated by intravenous injection during the 7 day period. The first dose was administered immediately after the surgery (e.g., after re-establishing blood flow at the graft area). The second dose was administered 6 hours before euthanizing the animal. Imaging data were collected and analyzed to evaluate the anti-coagulant effect of heparin-CREKA at the graft site.

[7] = tested on: platelets; assay: platelet adhesion assay using platelet-rich plasma on fibrin surfaces; assay type: cell-based; details: compared to bare fibrin surface; at a lower concentration than heparin; PRP 1:10, 37° C., 60 minutes; LDH readout
Procedure: Next, during the development of embodiments of the technology provided herein, experiments were conducted to test the anticoagulation activity of embodiments of the heparin-CREKA compounds described herein. In particular, a platelet adhesion assay was performed using platelet-rich plasma (PRP). Surfaces were treated with various concentrations of heparin or heparin-CREKA as described above. PRP, diluted 1:10 in PBS, was incubated at 37° C. for 60 minutes with the samples and gently rinsed with warm PBS. The number of adherent platelets was determined by detecting the amount of lactate dehydrogenase (LDH) present after cell lysis. Briefly, adherent platelets were lysed by incubation with 2% Triton-PSB buffer for 30 minutes at 37° C. A colorimetric substrate for LDH was added and incubated for 20 minutes at 37° C. The optical density was measured at a wavelength of 490 nm. A calibration curve was generated from a series of serial dilutions of a known platelet concentration and used to determine the number of adhered platelets.

Row | binding to albumin [1] | CREKA-fibrin binding [2] | binding to fibrinogen [3] | Substance | clotting in the grafts (histology) [4] | time for which the anti-coagulant effect was detected after contacting the blood [5] | anti-coagulant effect at the graft site relative to heparin-CERAK ([6]; Study 1: 24 hours, 2 intravenous doses (after surgery and 6 hours prior to euthanizing)) | anti-coagulant effect at the graft site relative to heparin-CERAK ([6]; Study 2: 7 days, one intravenous dose immediately after surgery) | anti-coagulant effect at the graft site relative to heparin-CERAK ([6]; Study 3: 7 days, two intravenous doses (after surgery and 6 hours before euthanizing)) | amount of adhered platelets [7]
1 | very weakly | highly specific | very weakly | Cys-Arg-Glu-Lys-Ala (CREKA; also: biotinylated, site not given here) [tested in biotinylated form] |  |  |  |  |  | 
2 |  |  |  | heparin [reference compound] | major clotting | < 20 min |  |  |  | 
3 |  |  |  | heparin-CREKA: heparin covalently linked through a BMPH linker to the fibrin binding peptide Cys-Arg-Glu-Lys-Ala (CREKA) (also: heparin linked via BMPH linker, site not given here) | remained clean | up to 60 minutes | significant improvement | only a very small difference | significant improvement | significantly reduced
